From patent US9512072B2, “Biodegradable computed tomography contrast agents” (Case Western Reserve University, priority 2013, dated 2016)

System: BALB/c mice
Assay: In vivo blood pool CT imaging on micro-CT scanner
Parameters: species or system mouse
Conditions: 350 mg-I/kg i.v.
Method: The polymeric contrast agents and the control contrast agent, iodixanol, were evaluated with BALB/c mice (18-22 g body weight, 6 mice per agent). All the mice were scanned on the same machine as the in vitro detection. The images were obtained at an x-ray voltage of 80 kVp, an anode current of 500 μA and an exposure time of 200 ms for every rotational steps (total rotation degree is 360 and rotation steps are 180). The field of view was […]. Images were reconstructed in a 1024 pixel×1024 pixel grid with a pixel size of 18 μm×18 μm. […]
CT values are expressed in Hounsfield Units (HU) and were obtained per organ by drawing volumetric regions of interest (RIOs). […] The average HU values and the standard deviation were calculated from the data with 3 ROIs per organ. The CT data was analyzed to determine the contrast enhancement of different agents at various time points post-injection. In vivo CT values of the regions of interest, such as heart, blood, liver and bladder, were measured to study the dynamic enhancement of different organs. […]
The effectiveness of the iodinated polydisulfides for in vivo contrast enhanced CT imaging was assessed in BALB/c mice (18-22 g body weight, 6 mice per agent) on a micro-CT scanner with iodixanol as a control agent. […]

SMILES: CC(=O)N(CC(O)CN(C(C)=O)c1c(I)c(C(=O)NCC(O)CO)c(I)c(C(=O)NCC(O)CO)c1I)c1c(I)c(C(=O)NCC(O)CO)c(I)c(C(=O)NCC(O)CO)c1I (centres unmarked) [iodixanol]
- vascular enhancement and delineation (10 min after injection): did not produce any enhancement
- blood signal at its peak (pre-injection 27±30 HU): 56±26 HU
